What was measured:
Cathepsin D (Cat D) = Cathepsin D (Cat D) (Homo sapiens (Human), UniProt P07339); assay: In vitro enzymatic Cathepsin D (Cat D) FRET assay; format: biochemical; settings: read-out: CatD IC50
[1] = target: Beta Secretase enzyme (BACE) (Homo sapiens (Human), UniProt P56817); assay: In vitro enzymatic BACE FRET assay; format: biochemical; settings: read-out: BACE1 Enzyme assay IC50
Chain of Beta Secretase enzyme (BACE) (P56817 46-501): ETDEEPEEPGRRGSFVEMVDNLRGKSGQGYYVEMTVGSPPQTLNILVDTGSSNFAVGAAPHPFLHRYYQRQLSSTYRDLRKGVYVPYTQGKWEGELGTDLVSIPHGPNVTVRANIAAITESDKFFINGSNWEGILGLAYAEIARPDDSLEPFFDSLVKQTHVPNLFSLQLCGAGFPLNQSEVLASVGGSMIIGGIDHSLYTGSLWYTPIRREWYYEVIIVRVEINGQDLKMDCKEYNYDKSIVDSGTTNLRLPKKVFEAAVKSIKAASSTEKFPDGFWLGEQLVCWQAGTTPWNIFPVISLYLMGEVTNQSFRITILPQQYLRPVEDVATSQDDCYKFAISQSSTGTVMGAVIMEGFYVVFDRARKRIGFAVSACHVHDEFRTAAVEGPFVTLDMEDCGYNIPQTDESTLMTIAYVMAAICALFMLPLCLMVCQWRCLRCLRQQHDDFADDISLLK

Chain of Cathepsin D (Cat D) (P07339 65-412, species assumed): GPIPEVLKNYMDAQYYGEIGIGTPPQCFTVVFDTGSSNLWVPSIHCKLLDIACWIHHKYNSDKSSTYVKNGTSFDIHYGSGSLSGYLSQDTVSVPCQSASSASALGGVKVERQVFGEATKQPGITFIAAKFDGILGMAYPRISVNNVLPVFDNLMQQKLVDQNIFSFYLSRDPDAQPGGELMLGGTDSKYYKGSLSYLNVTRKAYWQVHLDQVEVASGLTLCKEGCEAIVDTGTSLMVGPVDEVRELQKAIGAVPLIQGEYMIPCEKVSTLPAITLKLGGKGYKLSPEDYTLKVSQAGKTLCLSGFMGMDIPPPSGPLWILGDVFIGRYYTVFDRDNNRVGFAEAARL

## NC1=N[C@@](c2cc(N[C@H]3CCCc4cc(Br)cnc43)ccc2F)(C(F)F)[C@H]2C[C@H]2O1 (mixture of isomers) [Example 382, (1R,5S,6R)-5-(5-(((R)-3-bromo-5,6,7,8-tetrahydroquinolin-8-yl)amino)-2-fluorophenyl)-5-(difluoromethyl)-2-oxa-4-azabicyclo[4.1.0]hept-3-en-3-amine and (1R,5S,6R)-5-(5-(((S)-3-bromo-5,6,7,8-tetrahydroquinolin-8-yl)amino)-2-fluorophenyl)-5-(difluoromethyl)-2-oxa-4-azabicyclo[4.1.0]hept-3-en-3-amine]
Cathepsin D (Cat D)
  IC50: 263 µM
[1]
  IC50: 3.07 µM

## NC1=N[C@@](c2cc(N[C@@H]3CCc4cc(Br)ccc43)ccc2F)(C(F)F)[C@H]2C[C@H]2O1.NC1=N[C@@](c2cc(N[C@H]3CCc4cc(Br)ccc43)ccc2F)(C(F)F)[C@H]2C[C@H]2O1 (mixture of isomers) [Example 384, (1R,5S,6R)-5-(5-(((R)-5-bromo-2,3-dihydro-1H-inden-1-yl)amino)-2-fluorophenyl)-5-(difluoromethyl)-2-oxa-4-azabicyclo[4.1.0]hept-3-en-3-amine and (1R,5S,6R)-5-(5-(((S)-5-bromo-2,3-dihydro-1H-inden-1-yl)amino)-2-fluorophenyl)-5-(difluoromethyl)-2-oxa-4-azabicyclo[4.1.0]hept-3-en-3-amine]
Cathepsin D (Cat D)
  IC50: 82.5 µM
[1]
  IC50: 0.315 µM

## NC1=N[C@@](c2cc(N[C@H](c3ccc(Cl)cn3)C(F)(F)F)ccc2F)(C(F)F)[C@H]2C[C@H]2O1 (mixture of isomers) [Example 422, (1R,5S,6R)-5-(5-(((R)-1-(5-chloropyridin-2-yl)-2,2,2-trifluoroethyl)amino)-2-fluorophenyl)-5-(difluoromethyl)-2-oxa-4-azabicyclo[4.1.0]hept-3-en-3-amine and (1R,5S,6R)-5-(5-(((S)-1-(5-chloropyridin-2-yl)-2,2,2-trifluoroethyl)amino-2-fluorophenyl)-5-(difluoromethyl)-2-oxa-4-azabicyclo[4.1.0]hept-3-en-3-amine]
Cathepsin D (Cat D)
  IC50: 68.2 µM
[1]
  IC50: 5.25 µM

## Cc1cc(C#N)cnc1C(=O)Nc1cc(F)c(Cl)c([C@]2(CF)N=C(N)O[C@H]3C[C@H]32)c1 (racemic) [Example 137, N-(3-((1R/S,5S/R,6R/S)-3-amino-5-(fluoromethyl)-2-oxa-4-azabicyclo[4.1.0]hept-3-en-5-yl)-4-chloro-5-fluorophenyl)-5-cyano-3-methylpicolinamide]
Cathepsin D (Cat D)
  IC50: 539 µM
[1]
  IC50: 0.0448 µM

## CC#CCOc1cnc(C(=O)Nc2ccc(Cl)c([C@]3(C(F)F)N=C(N)O[C@H]4C[C@H]43)c2)cn1 (racemic) [Example 210, N-(3-([1(R,S),5(S,R),6(R,S)]-3-amino-5-(difluoromethyl)-2-oxa-4-azabicyclo[4.1.0]hept-3-en-5-yl)-4-chlorophenyl)-5-(but-2-yn-1-yloxy)pyrazine-2-carboxamide]
Cathepsin D (Cat D)
  IC50: 569 µM
[1]
  IC50: 0.0039 µM

## C#CCOc1cnc(C(=O)Nc2ccc(Cl)c([C@]3(C(F)F)N=C(N)O[C@H]4C[C@H]43)c2)cn1 (racemic) [Example 219, N-(3-((1(S,R),5(R,S),6(S,R))-3-amino-5-(difluoromethyl)-2-oxa-4-azabicyclo[4.1.0]hept-3-en-5-yl)-4-chlorophenyl)-5-(prop-2-yn-1-yloxy)pyrazine-2-carboxamide]
Cathepsin D (Cat D)
  IC50: 65.8 µM
[1]
  IC50: 0.0063 µM

## NC1=N[C@](c2cc(NC(=O)c3nn(C(F)F)cc3Cl)ccc2Cl)(C(F)F)[C@@H]2C[C@@H]2O1 (racemic) [Example 220, N-(3-((1(R,S),5(S,R),6(R,S))-3-amino-5-(difluoromethyl)-2-oxa-4-azabicyclo[4.1.0]hept-3-en-5-yl)-4-chlorophenyl)-4-chloro-1-(difluoromethyl)-1H-pyrazole-3-carboxamide]
Cathepsin D (Cat D)
  IC50: 691 µM
[1]
  IC50: 0.0188 µM

## NC1=N[C@](CF)(c2cccc(NC(=O)c3ccc(Cl)cn3)c2)[C@H]2C[C@H]2O1 (racemic) [Example 423, N-(3-(((1R,S),(5S,R),(6R,S))-3-amino-5-(fluoromethyl)-2-oxa-4-azabicyclo[4.1.0]hept-3-en-5-yl)phenyl)-5-chloropicolinamide]
Cathepsin D (Cat D)
  IC50: 592 µM
[1]
  IC50: 0.396 µM

## NC1=N[C@@](c2cc(N[C@@H]3CCc4cc(Br)cnc43)ccc2F)(C(F)F)[C@H]2C[C@H]2O1 (single isomer, unassigned) [Example 380, (1R,5S,6R)-5-(5-(((R)-3-bromo-6,7-dihydro-5H-cyclopenta[b]pyridin-7-yl)amino)-2-fluorophenyl)-5-(difluoromethyl)-2-oxa-4-azabicyclo[4.1.0]hept-3-en-3-amine or (1R,5S,6R)-5-(5-(((S)-3-bromo-6,7-dihydro-5H-cyclopenta[b]pyridin-7-yl)amino)-2-fluorophenyl)-5-(difluoromethyl)-2-oxa-4-azabicyclo[4.1.0]hept-3-en-3-amine]
Cathepsin D (Cat D)
  IC50: 336 µM
[1]
  IC50: 0.143 µM

## NC1=N[C@@](c2cc(N[C@H]3CCc4cc(Br)cnc43)ccc2F)(C(F)F)[C@H]2C[C@H]2O1 (single isomer, unassigned) [Example 381, (1R,5S,6R)-5-(5-(((S)-3-bromo-6,7-dihydro-5H-cyclopenta[b]pyridin-7-yl)amino)-2-fluorophenyl)-5-(difluoromethyl)-2-oxa-4-azabicyclo[4.1.0]hept-3-en-3-amine or (1R,5S,6R)-5-(5-(((R)-3-bromo-6,7-dihydro-5H-cyclopenta[b]pyridin-7-yl)amino)-2-fluorophenyl)-5-(difluoromethyl)-2-oxa-4-azabicyclo[4.1.0]hept-3-en-3-amine]
Cathepsin D (Cat D)
  IC50: 83.3 µM
[1]
  IC50: 3.45 µM

## C#CCOc1cnc(C(=O)Nc2cc(F)c(F)c([C@@]3(C(F)F)N=C(N)O[C@@H]4C[C@@H]43)c2)cn1 [Example 111, N-(3-((1R,5S,6R)-3-amino-5-(difluoromethyl)-2-oxa-4-azabicyclo[4.1.0]hept-3-en-5-yl)-4,5-difluorophenyl)-5-(prop-2-yn-1-yloxy)pyrazine-2-carboxamide]
Cathepsin D (Cat D)
  IC50: 1000 µM
[1]
  IC50: 6.5 µM

## C#CCOc1cnc(C(=O)Nc2cc(F)c(F)c([C@@]3(C(F)F)N=C(N)O[C@@H]4C[C@@H]43)c2)cn1 [Example 115, N-(3-((1R,5S,6R)-3-amino-5-(difluoromethyl)-2-oxa-4-azabicyclo[4.1.0]hept-3-en-5-yl)-4,5-difluorophenyl)-5-(prop-2-yn-1-yloxy)pyrazine-2-carboxamide]
Cathepsin D (Cat D)
  IC50: 42.5 µM
[1]
  IC50: 0.0021 µM

## Cc1cc(C#N)cnc1C(=O)Nc1cc(F)c(Cl)c([C@]2(CF)N=C(N)O[C@H]3C[C@H]32)c1 [Example 139, N-(3-((1 S,5R,6S)-3-amino-5-(fluoromethyl)-2-oxa-4-azabicyclo[4.1.0]hept-3-en-5-yl)-4-chloro-5-fluorophenyl)-5-cyano-3-methylpicolinamide]
Cathepsin D (Cat D)
  IC50: 646 µM
[1]
  IC50: 14.2 µM

## CC#CCOc1cnc(C(=O)Nc2ccc(Cl)c([C@]3(C(F)F)N=C(N)O[C@H]4C[C@H]43)c2)cn1 [Example 216, N-(3-((1S,5R,6S)-3-amino-5-(difluoromethyl)-2-oxa-4-azabicyclo[4.1.0]hept-3-en-5-yl)-4-chlorophenyl)-5-(but-2-yn-1-yloxy)pyrazine-2-carboxamide]
Cathepsin D (Cat D)
  IC50: 500 µM
[1]
  IC50: 0.838 µM

## Cc1ccc(NC(=O)c2ccc(C#N)cn2)cc1[C@@]1(C(F)F)N=C(N)O[C@@H]2C[C@@H]21 [Example 269, N-(3-((1R,5S,6R)-3-amino-5-(difluoromethyl)-2-oxa-4-azabicyclo[4.1.0]hept-3-en-5-yl)-4-methylphenyl)-5-cyanopicolinamide]
Cathepsin D (Cat D)
  IC50: 716 µM

## Cc1cc(NC(=O)c2ncc(C#N)cn2)cc([C@@]2(C(F)F)N=C(N)O[C@@H]3C[C@@H]32)c1F [Example 298, N-(3-((1R,5S,6R)-3-amino-5-(difluoromethyl)-2-oxa-4-azabicyclo[4.1.0]hept-3-en-5-yl)-4-fluoro-5-methylphenyl)-5-cyanopyrimidine-2-carboxamide]
Cathepsin D (Cat D)
  IC50: > 400 µM

## C#Cc1ccc(C(=O)Nc2ccc(F)c([C@@]3(C(F)F)N=C(N)O[C@@H]4C[C@@H]43)c2)nc1 [Example 313, N-(3-((1R,5S,6R)-3-amino-5-(difluoromethyl)-2-oxa-4-azabicyclo[4.1.0]hept-3-en-5-yl)-4-fluorophenyl)-5-ethynylpicolinamide]
Cathepsin D (Cat D)
  IC50: 467 µM

## NC1=N[C@@](c2cc(NC3(c4ccc(Cl)cn4)COC3)ccc2F)(C(F)F)[C@H]2C[C@H]2O1 [Example 332, (1R,5S,6R)-5-(5-((3-(5-chloropyridin-2-yl)oxetan-3-yl)amino)-2-fluorophenyl)-5-(difluoromethyl)-2-oxa-4-azabicyclo[4.1.0]hept-3-en-3-amine]
Cathepsin D (Cat D)
  IC50: 163 µM

## NC1=N[C@@](c2cc(Nc3ncc(F)c4cc(Cl)cnc34)ccc2F)(C(F)F)[C@H]2C[C@H]2O1 [Example 361, (1R,5S,6R)-5-(5-((3-chloro-5-fluoro-1,7-naphthyridin-8-yl)amino)-2-fluorophenyl)-5-(difluoromethyl)-2-oxa-4-azabicyclo[4.1.0]hept-3-en-3-amine]
Cathepsin D (Cat D)
  IC50: > 400 µM

## N=C1N[C@](CF)(c2cc(-c3cncc(F)c3)c(CO)cc2F)[C@H]2CC2O1 (stereo partly drawn) [Example 433, (5-fluoro-4-([(1R,S),(5S,R),(6R,S)]-5-(fluoromethyl)-3-imino-2-oxa-4-azabicyclo[4.1.0]heptan-5-yl)-2-(5-fluoropyridin-3-yl)phenyl)methanol]
[1]
  IC50: 23.1 µM

## COC(=O)c1ccc(C(=O)Nc2cc(F)c(F)c([C@]3(C(F)F)N=C(N)O[C@H]4C[C@H]43)c2)nc1 [Example 436, methyl 6-((3-((1S,5R,6S)-3-amino-5-(difluoromethyl)-2-oxa-4-azabicyclo[4.1.0]hept-3-en-5-yl)-4,5-difluorophenyl)carbamoyl)nicotinate]
Cathepsin D (Cat D)
  IC50: 343 µM

## (R)-4-((3-((1R,5S,6R)-3-amino-5-(difluoromethyl)-2-oxa-4-azabicyclo[4.1.0]hept-3-en-5-yl)-4-fluorophenyl)amino)chroman-7-carbonitrile and (S)-4-((3-((1R,5S,6R)-3-amino-5-(difluoromethyl)-2-oxa-4-azabicyclo[4.1.0]hept-3-en-5-yl)-4-fluorophenyl)amino)chroman-7-carbonitrile [Example 383]
[1]
  IC50: 0.968 µM

From patent US9085576B2 (AMGEN INC., priority 2013, dated 2015)
